# According to patent publication US11819498B2, “Methods and compositions for treating autophagy related disease states and conditions utilizing AMPK activation” (UNM RAINFOREST INNOVATIONS, priority 2019, dated 2023):
# Where a SMILES comes first, the peptide text is derived from it. The star is where a group is joined. βNA = c1ccc2cc(N*)ccc2c1
# What was measured:
# LC3 puncta = LC3 puncta by high content microscopy in THP-1 cells; assay type: cell-based; settings: 250 μM metformin 2 h, compared with LLOMe (FIG. 7A)
# Protocol: (§1) The cells were plated in 96 well plates on day 1 and were treated on day 2, followed by fixation in 4% paraformaldehyde for 5 min. After fixation, cells were washed twice with 1×PBS and were then permeabilized with 0.1% saponin in 3% Bovine serum albumin (BSA) for 30 min. The cells were then incubated with primary antibodies O/N at 4° C. On day3, the cells were washed twice with 1×PBS and incubated with secondary antibodies for 1 h followed by 5 min incubation with Hoechst 33342. High content microscopy with automated image acquisition and quantification was carried out using a Cellomics HCS scanner and iDEV software (ThermoFisher Scientific). Automated epifluorescence image collection was performed for a minimum of 500 cells per well. Epifluorescence images were machine analyzed using preset scanning parameters and object mask definitions. Hoechst 33342 staining was used for autofocus and to automatically define cellular outlines based on background staining of the cytoplasm. Primary objects were cells, and regions of interest (ROI) or targets were algorithm-defined by shape/segmentation, maximum/minimum average intensity, total area and total intensity, etc., to automatically identify puncta or other profiles within valid primary objects. All data collection, processing (object, ROI, and target mask assignments) and analyses were computer driven independently of human operators.
# [1] = system: LysoTracker Red staining of acidified compartments such as lysosomes; test: LysoTracker assay in THP-1 cells; assay type: cell-based; settings: 250 μM for 2 h (FIG. 5SD)
# Protocol: Prepare fresh LysoTracker Staining Solution (2 μL LysoTracker in 1 mL medium). Add 10 μL LysoTracker Staining Solution to no treatment, LLOMe treated or Metformin treated THP-1 cells in 96 wells for total 100 μL per well and incubate at 37° C. for 30 min protected from light. Rinse gently by 1×PBS and fix in 4% Paraformaldehyde for 2 min. Wash once by 1×PBS and blot with Hoechst 33342 for 2 min before detecting by high content microscopy.
# ALIX puncta = ALIX puncta by high content microscopy in THP-1 cells; assay type: cell-based; settings: 250 μM metformin 2 h or 250 μM LLOMe 1 h (FIG. 5SF)
# Protocol: as §1
# Gal9 puncta = Gal9 puncta by high content microscopy in metformin-treated cells; assay type: cell-based
# Protocol: as §1
# ubiquitin puncta = test: Ubiquitin puncta by high content microscopy in THP-1 cells; assay type: cell-based; settings: 250 μM metformin 2 h compared with 250 μM LLOMe 1 h (FIG. 5SC)
# Protocol: as §1
# Gal8 puncta = Gal8 puncta by high content microscopy in THP-1 cells; assay type: cell-based; settings: 250 μM for 2 h, HCM (FIG. 5SB)
# Protocol: as §1
# AMPK = test: Western blot of AMPK activation upon lysosomal damage by damaging agents; assay type: cell-based; settings: HEK293T cells, time and dose dependent, Western blot (FIGS. 4SE-F)
# Protocol: (§2) Western blotting and co-immunoprecipitation (co-IP) were performed as described previously (Chauhan et al., 2016). For TAK1 inhibition, the cells were treated with TAK1 inhibitor (5Z-oxozeanol) 1 h prior to LLOMe treatment. For co-IP, cells were transfected with plasmids as indicated in figures and lysed in NP-40 buffer containing protease inhibitor cocktail and PMSF. Lysates were incubated with antibodies at 4° C. for 4 h followed by incubation with protein G Dynabeads for 2 h at 4° C. Beads were washed three times with PBS and boiled with SDS containing sample buffer, samples were processed for immunoblotting to analyze the interactions between immunoprecipitated proteins.
# autophagy = settings: cited studies; cited from earlier work
# AMPKα1 on lysosomes = test: LysoIP lysosome purification and immunoblot; assay type: cell-based; settings: HEK293T cells, 1 mM LLOMe 30 min, LysoIP (FIG. 6B)
# Protocol: Stable LysoIP cells were produced, by utilizing lentiviruses constructs from David M. Sabatini Lab (White Head Institute). HEK293T cells were transfected with pLJC5-TMEM192-3xHA or pLJC5-TMEM192-2XFLAG constructs in combination with pCMV-VSV-G and psPAX2 packaging plasmids, 60 h after transfection, the supernatant containing lentiviruses was collected and centrifuged to remove cells and then frozen at −80° C. To establish LysoIP stably expressing cell lines, HEK293T, Huh7 or Huh7 Gal9^KO cells were plated in […] in DMEM with 10% FBS and infected with 500 μL of virus-containing media overnight followed by addition of 1 μg/mL puromycin for selection. Cells were plated in 15 cm^2 culture plates and were used at 90% confluency for each LysoIP. Cells with or without 1 mM LLOMe treatment were quickly rinsed twice with PBS and then scraped in 1 mL of KPBS (136 mM KCl, 10 mM KH2PO4, pH7.25 was adjusted with KOH) and centrifuged at 3000 rpm for 2 min at 4° C. Pelleted cells were resuspended in 950 μL KPBS and reserved 25 μL for further processing of the whole-cell lysate. The remaining cells were gently homogenized with 20 strokes of a 2 mL homogenizer. The homogenate was then centrifuged at 3000 rpm for 2 min at 4° C. and the supernatant was incubated with 100 μL of KPBS prewashed anti-HA magnetic beads (ThermoFisher) on a gentle rotator shaker for 3 min. […]
# [2] = system: Gal9 complexes with AMPK and TAK1; test: APEX2-Gal9 proximity biotinylation and co-IP after LLOMe; assay type: cell-based
# Protocol: as §2
# AMPKα1 = test: Western blot of Huh7 cells treated with TAK1 inhibitor and LLOMe; assay type: cell-based; settings: TAK1 inhibitor 1 h prior to 1 mM LLOMe 30 min
# Protocol: as §2
# TAK1 = test: Western blot of HeLa cells treated with TAK1 inhibitor and LLOMe; assay type: cell-based; settings: 1 mM LLOMe 30 min (FIG. 5C)
# Protocol: as §2
# LC3 = LC3 response in Huh7 and HeLa cells treated with TAK1 inhibitor and LLOMe; assay type: cell-based; settings: with LLOMe (FIG. 5C)
# Protocol: as §2
smiles,measurement,setting,value
CN(C)C(=N)N=C(N)N [metformin],LC3 response (average area of LC3 puncta per cell),LC3 puncta,a similar LC3 response
same,LysoTracker Red staining,[1],a decrease in staining
same,ALIX puncta response,ALIX puncta,a milder but significant response
same,response of Huh7 or 293T cells to metformin,Gal9 puncta; Huh7 or 293T cells,did not respond
same,"lysosomal damage response, Gal9 puncta formation","Gal9 puncta; THP-1 cells, 250 μM for 2 h, HCM (FIG. 5SB)",lysosomal damage response by detecting Gal9 puncta formation
same,ubiquitination response (ubiquitin puncta),ubiquitin puncta,a ubiquitination response albeit of a lesser magnitude than when applying an overt lysosomal damaging agent LLOMe
same,puncta stained for Gal8,Gal8 puncta,an increase in puncta stained for Gal8
"NCC(=O)N[C@@H](Cc1ccccc1)C(=O)Nc1ccc2ccccc2c1 [GPN, Gly-Phe β-naphthylamide] (H-Gly-Phe-βNA)",AMPK activation upon lysosomal damage,AMPK,activated
"Br.COC(=O)[C@H](CC(C)C)NC(=O)[C@@H](N)CC(C)C [LLOMe, Leu-Leu methyl ester hydrobromide]",AMPK activation upon lysosomal damage,AMPK,activated
same,autophagy induction,autophagy,has been shown to induce autophagy
same,ALIX puncta response,ALIX puncta,a robust response
same,AMPKα1 on purified lysosomes,AMPKα1 on lysosomes,enrichment of AMPKα1 on lysosomes
same,association between AMPK and Gal9,"[2]; APEX2-Gal9 proximity biotinylation, 30 min of exposure (FIG. 4SA)",increased association
same,mCherry-Gal9 association with GFP-TAK1,"[2]; HeLa Flp-In Gal9 Tet-ON cells, 30 min of treatment (FIG. 4SB)",A similar increase
"COc1cc(O)c2c(c1)/C=C/C[C@H](O)[C@H](O)C(=O)/C=C\C[C@H](C)OC2=O [5ZO, (5-Z)-7-oxozeaenol]",AMPKα1 activation upon lysosomal damage,AMPKα1,prevented AMPKα1 activation
same,TAK1 activation with LLOMe,TAK1,suppressed TAK1 activation
same,phosphorylation of AMPK substrate ACC (pS79),TAK1,inhibition of phosphorylation
same,phosphorylation of AMPKα1 (pT172),TAK1,inhibition of phosphorylation
same,LC3 response,LC3,reduced the LC3 response
